Reference: ChEMBL document CHEMBL5154718, “Synthesis, biological evaluation, and molecular modeling simulations of new heterocyclic hybrids as multi-targeted anti-Alzheimer's agents” (Eur J Med Chem, 2022)
Active and inactive are the calls of the source. No cut-off for these calls is given here.

Assays:
Cholinesterase [1] = target: T1, Cholinesterase (Homo sapiens, UniProt P06276); assay: Inhibition of human plasma BuChE using butyrylthiocholine as substrate preincubated for 5 mins followed by substrate addition by Ellman's method; assay type: cell-free
Acetylcholinesterase [2] = target: T2, Acetylcholinesterase (Homo sapiens, UniProt P22303); assay: Inhibition of human recombinant AChE using acetylthiocholine as substrate preincubated for 5 mins followed by substrate addition by Ellman's method
Acetylcholinesterase [3] = target: T2, Acetylcholinesterase
Description: Inhibition of C-terminal 6His-tagged human recombinant AChE (32 to 614 residues) expressed in HEK293 cells using acetylthiocholine iodide as substrate preincubated for 5 mins followed by substrate addition by Ellman's method

in vitro = settings: human, HepG2 cells
Description: Cytotoxicity against human HepG2 cells assessed as cell growth inhibition incubated for 72 hrs by MTT assay

[4] = Metal chelating activity assessed as Zn2+-compound complex formation by measuring hypochromic shift at 30 to 60 uM by UV-visible spectrophotometry; settings: dose 30-60 µM
[5] = Metal chelating activity assessed as Fe2+-compound complex formation by measuring bathochromic shift at 30 to 60 uM by UV-visible spectrophotometry; settings: dose 30-60 µM
[6] = Toxicity in Sprague-Dawley rat assessed as mortality up to 120 mg/kg, ip administered as single dose measured after 24 hrs; assay type: organism-based; settings: in vivo
[7] = Metal chelating activity assessed as Cu2+-compound complex formation by measuring hyperchromic shift at 30 to 60 uM by UV-visible spectrophotometry; settings: dose 30-60 µM
[8] = Metal chelating activity assessed as Cu2+-compound complex formation by measuring bathochromic shift at 30 to 60 uM by UV-visible spectrophotometry; settings: dose 30-60 µM
[9] = Metal chelating activity assessed as Zn2+-compound complex formation by measuring hyperchromic shift at 30 to 60 uM by UV-visible spectrophotometry; settings: dose 30-60 µM
AChE = assay type: toxicity, cell-based; settings: human, probe acetylthiocholine iodide; read-out: Ratio IC50
animal or person = assay type: functional; settings: Rattus norvegicus, Sprague-Dawley, Brain, route ip, time 1 hrs
[10] = target: T3, Amyloid-beta precursor protein (Homo sapiens, UniProt P05067); assay: Inhibition of amyloid beta (1 to 42 ) (unknown origin) self aggregation at 25 uM measured after 3 hrs by ThT fluorescence assay relative to control
Cholinesterase [11] = target: T1, Cholinesterase
Description: Inhibition of C-terminal 6His-tagged human recombinant BuChE (29 to 602 residues) using butyrylthiocholine iodide as substrate preincubated for 5 mins followed by substrate addition by Ellman's method

[12] = target: T3, Amyloid-beta precursor protein; assay: Inhibition of amyloid beta (1 to 42 ) (unknown origin) self aggregation measured after 3 hrs by ThT fluorescence assay
[13] = Metal chelating activity assessed as Fe2+-compound complex formation by measuring hyperchromic shift at 30 to 60 uM by UV-visible spectrophotometry; settings: dose 30-60 µM

T1 sequence (P06276 whole entry): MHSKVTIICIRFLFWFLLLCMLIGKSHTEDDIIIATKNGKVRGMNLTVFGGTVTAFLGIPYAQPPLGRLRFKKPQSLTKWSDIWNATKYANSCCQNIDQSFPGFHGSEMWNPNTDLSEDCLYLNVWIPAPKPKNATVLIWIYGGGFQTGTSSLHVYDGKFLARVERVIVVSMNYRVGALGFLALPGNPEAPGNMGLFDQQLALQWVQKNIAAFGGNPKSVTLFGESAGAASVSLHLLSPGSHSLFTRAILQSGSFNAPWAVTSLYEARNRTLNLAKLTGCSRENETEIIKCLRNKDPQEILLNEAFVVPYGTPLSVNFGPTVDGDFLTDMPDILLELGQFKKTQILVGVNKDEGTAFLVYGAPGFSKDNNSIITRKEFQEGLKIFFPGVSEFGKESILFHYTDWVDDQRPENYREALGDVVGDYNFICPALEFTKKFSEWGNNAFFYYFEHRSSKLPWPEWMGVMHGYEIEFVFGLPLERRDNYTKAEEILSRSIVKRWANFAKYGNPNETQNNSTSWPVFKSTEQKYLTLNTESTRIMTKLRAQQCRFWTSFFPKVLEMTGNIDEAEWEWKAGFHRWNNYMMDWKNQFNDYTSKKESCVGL
T2 sequence (P22303 whole entry): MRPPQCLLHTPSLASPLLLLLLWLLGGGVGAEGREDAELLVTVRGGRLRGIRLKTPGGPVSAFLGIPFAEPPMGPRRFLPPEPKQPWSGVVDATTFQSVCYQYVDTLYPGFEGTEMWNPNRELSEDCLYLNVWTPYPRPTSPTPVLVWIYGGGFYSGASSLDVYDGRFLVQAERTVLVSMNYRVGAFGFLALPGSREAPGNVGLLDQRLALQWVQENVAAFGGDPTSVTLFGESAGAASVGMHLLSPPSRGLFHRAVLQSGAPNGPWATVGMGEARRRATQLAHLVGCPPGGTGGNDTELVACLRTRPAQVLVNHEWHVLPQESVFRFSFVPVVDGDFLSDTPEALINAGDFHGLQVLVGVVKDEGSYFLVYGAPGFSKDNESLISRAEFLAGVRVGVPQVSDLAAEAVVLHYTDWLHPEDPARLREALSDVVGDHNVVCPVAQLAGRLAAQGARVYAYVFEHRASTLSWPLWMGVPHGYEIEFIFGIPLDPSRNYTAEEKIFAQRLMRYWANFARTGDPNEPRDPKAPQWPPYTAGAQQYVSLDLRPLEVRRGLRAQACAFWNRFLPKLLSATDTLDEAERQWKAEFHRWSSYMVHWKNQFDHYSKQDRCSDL
T3 sequence (P05067 whole entry): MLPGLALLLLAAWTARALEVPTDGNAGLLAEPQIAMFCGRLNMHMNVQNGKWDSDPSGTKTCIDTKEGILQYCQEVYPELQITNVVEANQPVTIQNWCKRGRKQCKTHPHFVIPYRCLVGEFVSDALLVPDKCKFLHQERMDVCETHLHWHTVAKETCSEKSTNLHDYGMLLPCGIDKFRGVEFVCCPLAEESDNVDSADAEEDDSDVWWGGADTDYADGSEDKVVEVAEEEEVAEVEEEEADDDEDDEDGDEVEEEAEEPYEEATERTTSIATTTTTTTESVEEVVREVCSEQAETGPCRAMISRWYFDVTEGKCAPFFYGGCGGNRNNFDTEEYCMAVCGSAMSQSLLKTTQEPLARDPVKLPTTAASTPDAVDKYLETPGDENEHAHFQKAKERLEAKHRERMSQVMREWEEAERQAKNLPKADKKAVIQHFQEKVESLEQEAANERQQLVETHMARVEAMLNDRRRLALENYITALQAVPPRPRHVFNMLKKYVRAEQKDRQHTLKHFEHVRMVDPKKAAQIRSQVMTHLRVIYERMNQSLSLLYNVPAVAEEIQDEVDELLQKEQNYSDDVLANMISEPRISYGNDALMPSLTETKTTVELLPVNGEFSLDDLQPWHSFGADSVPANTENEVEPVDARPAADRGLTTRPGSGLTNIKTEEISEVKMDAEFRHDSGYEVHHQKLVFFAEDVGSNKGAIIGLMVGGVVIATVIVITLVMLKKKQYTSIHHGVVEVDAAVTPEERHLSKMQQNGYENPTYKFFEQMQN

Q: For `c1ccc2c(NCCN3CCOCC3)c3c(nc2c1)CCCC3`, which IC50 (Cholinesterase [1]) is on record?
A: 16 nM

Q: What about the IC50 (Acetylcholinesterase [2]) of the same compound?
A: 93 nM

Q: With `O=[N+]([O-])c1ccc2nc3c(c(N4CCCCC4)c2c1)CCCC3` as the compound, how does the IC50 (Acetylcholinesterase [3]) read?
A: 1890 nM

Q: Which IC50 at 72 h (in vitro) does the source give for `COc1cc2nc3c(c(N4CCOCC4)c2cc1OC)CCCC3` here?
A: 6300 nM

Q: What about the Activity [4] of the same compound?
A: Active

Q: And the Activity [5]?
A: Active

Q: What about the Activity [6] of the same compound?
A: Non-Toxic

Q: What about the Activity [7] of the same compound?
A: Active

Q: What about the Activity [8] of the same compound?
A: Active

Q: And the Activity [9]?
A: Active

Q: What about the selectivity ratio at 72 h (AChE) of the same compound?
A: 102

Q: What about the inhibition in vivo at 10 mg/kg (animal or person) of the same compound?
A: 35%

Q: What about the inhibition [10] of the same compound?
A: 78.6%

Q: What about the IC50 (Cholinesterase [11]) of the same compound?
A: 767 nM

Q: And the IC50 [12]?
A: 1230 nM

Q: What about the Activity [13] of the same compound?
A: Active

Q: And the IC50 (Acetylcholinesterase [3])?
A: 62 nM

Q: Which IC50 (Acetylcholinesterase [3]) does the source give for `O=C(CCN1CCCCC1)Nc1n[nH]c2ncccc12` here?
A: 658 nM

Q: With `Cc1ccc2nc3c(c(NCCCl)c2c1)CCCC3` as the compound, how does the IC50 (Acetylcholinesterase [3]) read?
A: 763 nM

Q: Which inhibition [10] does the source give for `CN1CCN(c2c3c(nc4ccc([N+](=O)[O-])cc24)CCCC3)CC1` here?
A: 66.4%

Q: And the IC50 (Cholinesterase [11])?
A: 166 nM

Q: What about the IC50 [12] of the same compound?
A: 4490 nM

Q: What about the IC50 (Acetylcholinesterase [3]) of the same compound?
A: 245 nM

Q: For `Cc1ccc2nc3c(c(NCCO)c2c1)CCCC3`, which inhibition [10] is on record?
A: 69.8%

Q: What about the IC50 (Cholinesterase [11]) of the same compound?
A: 840 nM

Q: And the IC50 [12]?
A: 2950 nM

Q: What about the IC50 (Acetylcholinesterase [3]) of the same compound?
A: 180 nM

Q: With `Cc1ccc2nc3c(c(N4CCOCC4)c2c1)CCCC3` as the compound, how does the IC50 (Acetylcholinesterase [3]) read?
A: 1780 nM

Q: Which results are given for `CC(=O)Nc1ccc2nc3c(c(N4CCCCC4)c2c1)CCCC3`?
A: inhibition [10]: 77.3%; IC50 (Cholinesterase [11]): 459 nM; IC50 [12]: 1300 nM; IC50 (Acetylcholinesterase [3]): 301 nM

Q: With `CC(=O)Nc1ccc2nc3c(c(N4CCOCC4)c2c1)CCCC3` as the compound, how does the IC50 (Acetylcholinesterase [3]) read?
A: 1110 nM

Q: For `Cc1ccc2nc3c(c(NCCN4CCN(C)CC4)c2c1)CCCC3`, which IC50 (Acetylcholinesterase [3]) is on record?
A: 974 nM

Q: With `Cc1ccc2nc3c(c(N4CCN(c5c6c(nc7ccc(C)cc57)CCCC6)CC4)c2c1)CCCC3` as the compound, how does the IC50 (Acetylcholinesterase [3]) read?
A: 521 nM

Q: Which IC50 (Acetylcholinesterase [3]) does the source give for `Cc1ccc2nc3c(c(Nc4[nH]nc5ncccc45)c2c1)CCCC3` here?
A: 811 nM

Q: With `Cc1ccc2nc3c(c(N4CCN(C)CC4)c2c1)CCCC3` as the compound, how does the IC50 (Acetylcholinesterase [3]) read?
A: 440 nM

Q: With `Cc1ccc2nc3c(c(NCCN4CCCCC4)c2c1)CCCC3` as the compound, how does the IC50 (Acetylcholinesterase [3]) read?
A: 2540 nM
